This note sets out measurements from patent US11185532B2, “Methods of treating pruritus” (Clexio Biosciences Ltd., priority 2019, dated 2021).

The target of data set [1] is T1, SST4 (Homo sapiens, UniProt P31391). Nature of the data set: biochemical.
Another data set concerns the target Adrenergic α2A (Homo sapiens, UniProt P08913). The experiment in a line: biochemical.
The target in the next data set is Adrenergic α2C (Homo sapiens, UniProt P18825). Nature of the data set: biochemical.
A further data set has as its target T2, HRH4 (Homo sapiens, UniProt Q9H3N8).
T2 construct: Eurofins Discover X, USA
The experiment in a line: β-arrestin GPCR internalization assay. The format is cell-based. As to conditions: for EC50: read-out: RC50 (EC50).

Data set [2] concerns the target T1, SST4. Nature of the data set: In vitro functional assay, SST4. The format is cell-based. As to conditions: agonist; highest concentration tested 10 μm.
Data set [3] concerns PNT-induced neuropathic pain in pigs. The experiment in a line: Peripheral neuritis trauma (PNT)-induced neuropathic pain in pigs. The conditions noted are these: topical twice daily 0.1%, 0.33%, 1%. The format is in vivo. The source says: 30 pigs were anaesthetized and an incision of 8-10 cm made through the skin and fascia on the left side of their lower backs, approximately 1 cm lateral and parallel to the spine line. The muscles were retracted and the sciatic nerve exposed. Following exposure, PNT was induced by loosely tying (1-2 mm apart) around the lateral half of the sciatic nerve bundle, three 3-0 silk threads, each previously immersed in complete Freund's adjuvant. 14 days after surgery and once chronic neuropathic pain had been established, treatment was initiated according to the protocol shown in Table 5. [table] At time points over the following 14 days, the animals were assessed for a variety of pain and motor parameters.

Like-named read-outs stand apart in the source and are kept apart here. Some results are limits rather than exact numbers.

T1 sequence (P31391 whole entry): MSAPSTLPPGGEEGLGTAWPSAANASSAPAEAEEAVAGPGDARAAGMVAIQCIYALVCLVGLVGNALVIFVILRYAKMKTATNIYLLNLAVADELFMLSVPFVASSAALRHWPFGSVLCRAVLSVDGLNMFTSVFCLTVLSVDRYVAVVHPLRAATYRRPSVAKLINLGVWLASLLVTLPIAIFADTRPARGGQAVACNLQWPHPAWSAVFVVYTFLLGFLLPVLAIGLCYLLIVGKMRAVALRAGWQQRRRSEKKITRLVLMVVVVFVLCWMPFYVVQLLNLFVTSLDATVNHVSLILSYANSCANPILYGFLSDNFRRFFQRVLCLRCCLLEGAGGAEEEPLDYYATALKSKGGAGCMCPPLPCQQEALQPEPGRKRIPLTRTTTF
T2 sequence (Q9H3N8 whole entry): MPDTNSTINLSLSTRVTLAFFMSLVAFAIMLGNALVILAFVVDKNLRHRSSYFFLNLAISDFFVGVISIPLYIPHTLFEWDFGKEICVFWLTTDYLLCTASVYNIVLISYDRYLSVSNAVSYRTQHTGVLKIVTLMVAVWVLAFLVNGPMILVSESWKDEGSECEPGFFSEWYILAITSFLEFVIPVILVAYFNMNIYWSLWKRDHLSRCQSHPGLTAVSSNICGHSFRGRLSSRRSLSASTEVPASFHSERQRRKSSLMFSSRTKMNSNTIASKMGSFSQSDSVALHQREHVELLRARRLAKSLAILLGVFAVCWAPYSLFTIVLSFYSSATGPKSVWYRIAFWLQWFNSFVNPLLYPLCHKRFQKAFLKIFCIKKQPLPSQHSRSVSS
Adrenergic α2C, sequence (P18825 whole entry): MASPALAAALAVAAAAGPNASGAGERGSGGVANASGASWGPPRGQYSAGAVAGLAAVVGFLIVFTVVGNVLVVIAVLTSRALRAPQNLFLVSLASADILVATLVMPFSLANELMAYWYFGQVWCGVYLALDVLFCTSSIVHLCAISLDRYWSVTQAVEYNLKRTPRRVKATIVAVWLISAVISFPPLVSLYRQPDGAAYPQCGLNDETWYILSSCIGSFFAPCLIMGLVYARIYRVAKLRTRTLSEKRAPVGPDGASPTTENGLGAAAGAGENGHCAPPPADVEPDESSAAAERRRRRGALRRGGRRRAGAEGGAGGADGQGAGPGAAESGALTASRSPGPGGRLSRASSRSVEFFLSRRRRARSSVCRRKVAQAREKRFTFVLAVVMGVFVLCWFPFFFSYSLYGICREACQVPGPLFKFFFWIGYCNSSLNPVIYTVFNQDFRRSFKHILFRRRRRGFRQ
Adrenergic α2A, sequence (P08913 whole entry): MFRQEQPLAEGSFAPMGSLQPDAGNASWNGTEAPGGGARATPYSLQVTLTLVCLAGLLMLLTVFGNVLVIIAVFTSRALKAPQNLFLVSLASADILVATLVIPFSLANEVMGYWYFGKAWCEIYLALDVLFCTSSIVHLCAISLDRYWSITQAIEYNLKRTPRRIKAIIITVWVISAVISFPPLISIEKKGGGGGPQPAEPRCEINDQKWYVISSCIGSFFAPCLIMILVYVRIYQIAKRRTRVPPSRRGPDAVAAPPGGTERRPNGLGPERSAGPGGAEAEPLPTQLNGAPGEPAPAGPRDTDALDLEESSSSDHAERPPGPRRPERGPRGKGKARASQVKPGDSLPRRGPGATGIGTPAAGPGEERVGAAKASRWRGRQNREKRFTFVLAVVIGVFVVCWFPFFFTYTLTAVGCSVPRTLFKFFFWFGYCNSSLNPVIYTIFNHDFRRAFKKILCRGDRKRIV

The term inhibition denotes how much of the control response was suppressed. With `Clc1cccc(Cl)c1N=C1NCCN1` [clonidine], the inhibition at 10 µM at SST4 [1] was found to be 13%; against Adrenergic α2A it was 94%; against Adrenergic α2C, 97%.
By EC50 is commonly meant the concentration needed to bring the measured effect to its halfway point. What is called IC50 is the point on the concentration scale where inhibition reaches its midpoint. `Cc1cccc(Cc2c[nH]cn2)c1C` [detomidine] yielded an inhibition at 10 µM on SST4 [1] of 35%. Further, the half-maximal effective concentration (EC50) on HRH4 (assay format: Agonist) was 9.6 µM; on HRH4 (assay format: Inverse agonist), over 100 µM; at SST4 [2], 7.3 µM. At HRH4 (assay format: Antagonist, read-out: RC50 (IC50)), the IC50 is over 100 µM. Further, the “Stimulus-evoked pain, Von Frey (VF) withdrawal threshold” value in data set [3] (14 days, versus placebo, from Day 0) is on record as “dose-dependent analgesic effect”. In addition, in data set [3] (12-13 cm pigeon feather, as soon as Day 0), the “Tactile allodynia, feather stimulation” value is on record as “dose-dependent decreased tactile allodynia”. In data set [3] (3 h and 6 h post-dose, from Day 0), the “Spontaneous pain behavior, General Behavioral Score (GBS)” value was “dose-dependent reduction in GBS scores”. Moreover, the “Open field motor test, locomotor activity / sedation” value in data set [3] (throughout the study) was “did not affect locomotor activity at any dose level”.
